From patent US20220289691A1, “5-AMINO-SUBSTITUTED PYRAZOLES AND TRIAZOLES AS PEST CONTROL AGENTS” (Bayer Aktiengesellschaft, priority 2019, published 2022) come the findings set out here.

Common to all, as to type: in vivo
The subject of one assay is Tetranychus urticae. Nature of the assay: Tetranychus urticae spray test, OP-resistant. As to conditions: 100 g/ha. How it is done:
Tetranychus urticae—Spray Test, OP-Resistant Solvent: 78.0 parts by weight of acetone • • 1.5 parts by weight of dimethylformamide Emulsifier: alkylaryl polyglycol ether
(§1) To produce a suitable active compound formulation, 1 part by weight of active compound is dissolved using the stated parts by weight of solvent and made up with water containing an emulsifier concentration of 1000 ppm until the desired concentration is attained. To produce further test concentrations, the formulation is diluted with emulsifier-containing water.
Discs of bean leaves (Phaseolus vulgaris) infested with all stages of the greenhouse red spider mite (Tetranychus urticae) are sprayed with an active compound formulation of the desired concentration.
After 6 days, the efficacy in % is determined. 100% means that all the spider mites have been killed; 0% means that no spider mites have been killed.

A further assay deals with Spodoptera frugiperda. Nature of the assay: Spodoptera frugiperda spray test. As to conditions: foliar, 168 h, maize leaf discs, after 7 days, read-out: efficacy (caterpillars killed). Put shortly:
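Compound was dissolved in acetone/dimethylformamide and diluted with water containing 1000 ppm alkylaryl polyglycol ether emulsifier to test concentrations. Maize leaf discs were sprayed, dried and infested with fall armyworm caterpillars. Efficacy (% caterpillars killed) was scored after 7 days.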

For the next assay, the system named is Phaedon cochleariae. Kind of assay: Phaedon cochleariae spray test. The note with it: foliar, 168 h, Chinese cabbage leaf discs, after 7 days, read-out: efficacy (beetle larvae killed).
A further assay relates to Musca domestica. Kind of assay: Musca domestica test. The note with it: 100 ppm, adult houseflies, after 2 days. How it is done: Solvent: Dimethyl Sulfoxide
To produce a suitable active compound formulation, 10 mg of active compound are mixed with 0.5 ml of dimethyl sulfoxide, and the concentrate is diluted with water to the desired concentration.
Vessels containing a sponge treated with sugar solution and the desired concentration of active compound formulation are populated with 10 adult houseflies (Musca domestica).
After 2 days, the kill in % is determined. 100% means that all of the flies have been killed; 0% means that none of the flies have been killed.

For assay [1], the system named is Ctenocephalides felis. Kind of assay: Ctenocephalides felis oral test. The note with it: 48 h, 100 ppm in citrated cattle blood, adult cat fleas, after 2 days, read-out: efficacy (kill).
Another assay relates to Diabrotica balteata. Nature of the assay: Diabrotica balteata spray test. As to conditions: 168 h, beetle larvae on wheat, after 7 days, read-out: efficacy (wheat plant growth); for pest or weed control at 100 g/ha: 100 g/ha (=32 μg/cavity); for pest or weed control at 500 g/ha: 500 g/ha (=160 μg/cavity). Put shortly:
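Germinated wheat seedlings in agar multiwell plates were sprayed with compound in acetone/DMF with emulsifier-containing water, then infested with 10-20 Diabrotica balteata larvae. After 7 days, efficacy (%) scored by plant growth: 100% equals untreated, uninfested control, 0% no plants grown.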

In a further assay the test system is Myzus persicae. Kind of assay: Myzus persicae oral test. The note with it: 4 ppm, after 5 days. On the procedure:
Myzus persicae—Oral Test Solvent: 100 parts by weight of acetone
To produce a suitable active compound formulation, 1 part by weight of active compound is dissolved using the specified parts by weight of solvent and made up with water until the desired concentration is attained.
50 μl of the active compound formulation are transferred into microtitre plates and made up to a final volume of 200 μl with 150 μl of IPL41 insect medium (33%+15% sugar). Subsequently, the plates are sealed with parafilm, which a mixed population of green peach aphids (Myzus persicae) within a second microtitre plate is able to puncture and imbibe the solution through.
After 5 days, the efficacy in % is determined. 100% means that all the aphids have been killed; 0% means that no aphids have been killed.

The next assay concerns Nezara viridula. Kind of assay: Nezara viridula spray test. As to conditions: 500 g/ha, larvae on barley plants, after 4 days. How it is done: Nezara viridula—Spray Test Solvent: 78.0 parts by weight of acetone • • 1.5 parts by weight of dimethylformamide Emulsifier: alkylaryl polyglycol ether
as §1
Barley plants (Hordeum vulgare) are sprayed with an active compound formulation of the desired concentration and are infected with larvae of the Southern green shield bug (Nezara viridula).
After 4 days, the efficacy in % is determined. 100% means that all of the shield bugs have been killed; 0% means that none of the shield bugs have been killed.

The test system of assay [2] is Ctenocephalides felis. Nature of the assay: Ctenocephalides felis in vitro contact test with adult cat fleas. As to conditions: 5 μg/cm^2 (=500 g of ai/ha), after 48 h, read-out: efficacy (fleas dead or moribund). How it is done:
Ctenocephalides felis—In Vitro Contact Tests with Adult Cat Fleas
For the coating of the test tubes, 9 mg of active compound are first dissolved in 1 ml of acetone p.a. and then diluted to the desired concentration with acetone p.a. 250 μl of the solution are distributed homogeneously on the inner walls and the base of a 25 ml glass tube by turning and rocking on an orbital shaker (rocking rotation at 30 rpm for 2 h). With 900 ppm of active compound solution and internal surface area 44.7 cm^2, given homogeneous distribution, an area-based dose of 5 μg/cm^2 is achieved.
After the solvent has evaporated off, the tubes are populated with 5-10 adult cat fleas (Ctenocephalides felis), sealed with a perforated plastic lid and incubated in a horizontal position at room temperature and ambient humidity. After 48 h, efficacy is determined. To this end, the tubes are stood upright and the fleas are knocked to the base of the tube. Fleas which remain motionless at the base or move in an uncoordinated manner are considered to be dead or moribund.
100% efficacy means that all the fleas were dead or moribund. 0% efficacy means that no fleas were harmed.

Regarding `CCO[C@@H]1[C@@H](OC)[C@H](C)O[C@@H](OC(=O)Nc2ccc(-c3nc(NC(C)=O)n(-c4ccc(OC(F)(F)C(F)(F)F)cc4)n3)cc2)[C@@H]1OC` [Compound I-006], the “efficacy (spider mites killed)” value in the assay with Tetranychus urticae (foliar, 144 h) is given as 100%. The pest or weed control at 100 g/ha in the assay with Spodoptera frugiperda and in the assay with Phaedon cochleariae (100 g/ha) was 100% each time. The pest or weed control at 500 g/ha in the assay with Spodoptera frugiperda and in the assay with Phaedon cochleariae was 100% each time. For the same molecule, in the assay with Musca domestica, the “efficacy (kill)” value stood at 80%. Further, the pest or weed control at 100 ppm in the assay on Ctenocephalides felis [1] came out at 95%.

Consider `CC(C)c1ccccc1NC(=S)NN=Cc1ccc(-c2nc(NC3CSC3)n(-c3ccc(OC(F)(F)F)cc3)n2)cc1` [Compound I-057], for which, in the assay with Diabrotica balteata, the pest or weed control at 100 g/ha was 100% and the pest or weed control at 500 g/ha came out at 100%. Moreover, the pest or weed control at 100 g/ha with Spodoptera frugiperda worked out at 100%. The “efficacy (aphids killed)” value in the assay with Myzus persicae is 90%.

Take `CCO[C@@H]1[C@@H](OC)[C@H](C)O[C@@H](OC(=O)Nc2ccc(-c3nc(NC(C)=O)n(-c4ccc(OC(F)(F)F)cc4)n3)cc2)[C@@H]1OC` [Compound I-001, [(2S,3R,4R,5S,6S)-4-ethoxy-3,5-dimethoxy-6-methyl-tetrahydropyran-2-yl]N-[4-[5-acetamido-1-[4-(trifluoromethoxy)phenyl]-1,2,4-triazol-3-yl]phenyl]carbamate]: the “efficacy (spider mites killed)” value in the assay on Tetranychus urticae (foliar, 144 h) came out at 90%. In the assay with Spodoptera frugiperda, the pest or weed control at 100 g/ha came to 100% and the pest or weed control at 500 g/ha came to 100%. Besides, the pest or weed control at 500 g/ha with Phaedon cochleariae stood at 100%.

As to `CNc1nc(-c2ccc(C=NNC(=S)Nc3ccccc3C(C)C)cc2)nn1-c1ccc(OC(F)(F)F)cc1` [Compound I-018, 1-(2-isopropylphenyl)-3-[[4-[5-(methylamino)-1-[4-(trifluoromethoxy)phenyl]-1,2,4-triazol-3-yl]phenyl]methyleneamino]thiourea], the “efficacy (shield bugs killed)” value with Nezara viridula stood at 100%. Also, the pest or weed control at 125 g/ha in the assay on Diabrotica balteata (125 g/ha (=40 μg/cavity)) was determined as 100%. The pest or weed control at 500 g/ha in the assay with Diabrotica balteata was found to be 100%. Moreover, in the assay on Spodoptera frugiperda, the pest or weed control at 100 g/ha is 100%. The pest or weed control at 5 µg/cm2 with Ctenocephalides felis [2] is 80%. In addition, the “efficacy (aphids killed)” value in the assay on Myzus persicae is reported as 90%. Besides, the pest or weed control at 100 ppm in the assay with Ctenocephalides felis [1] amounted to 95%.

Consider `CCOCCNc1nc(-c2ccc(C=NNC(=S)Nc3ccccc3C(C)C)cc2)nn1-c1ccc(OC(F)(F)F)cc1` [Compound I-060], for which, in the assay with Tetranychus urticae (bean leaf discs, all stages, after 6 days), the “efficacy (spider mites killed)” value is recorded as 90%. Further, in the assay with Diabrotica balteata, the pest or weed control at 100 g/ha was 100% and the pest or weed control at 500 g/ha was 100%. Further, the pest or weed control at 100 g/ha with Spodoptera frugiperda worked out at 100%.
